The values below come from a melting point compilation (Tetko et al.; mined from patent text by program, amines drawn as free bases though some values may be those of a salt).

Residues, ends and D or L forms follow the SMILES beside them. *: point of attachment. Cbz = O=C(OCc1ccccc1)*; tBu = CC(C)(C)*

The term melting point denotes the temperature, or range, at which the solid turns liquid.

Compound `CCc1nc2c(cnn2CC)c(NC2CCOCC2)c1CNC(=O)c1cc(C)cc(C(=O)NCc2cccc(Br)c2)c1` displayed a melting point of 116 to 118 °C. For `CCN(CC)c1ccc([N+](=O)[O-])c(N2CCN(C(C)=O)CC2)n1` the value was 120 °C; for `COc1ccc2cc(-c3ccc(-n4nc(C)c(C)n4)c(Cl)c3)c(=O)oc2c1`, 170 °C. To `COc1ccc(C(Nc2ccc(C(=N)NO)cc2)C(=O)O)c(OCCO)c1` (racemic) belongs 205 °C; to `FC(F)(F)c1nc(-c2ccc(OCCCn3ccnc3)cc2)no1`, 73 to 73.5 °C; to `CCn1c(C)nc2nc(-c3ccccc3)c(-c3ccccc3)nc21`, 178 to 180 °C. For `O=C(c1ccc(Nc2ccnc3cc(C(F)(F)F)ccc23)cc1)N1CCC(O)(c2cccc(C(F)(F)F)c2)CC1` the value was 278 to 279 °C; for `CC(=O)Sc1ccc(C#C[Si](C)(C)C)cc1`, 45 to 47 °C. Turning to `COC(=O)c1sc(C(C)(C)C)cc1NC(=O)Nc1ccc(C)cc1`, the melting point fell in the range of 109 to 111 °C.

Turning to `C#CCOc1nnc(Cl)c2ccccc12`, the melting point lay in the range of 134 to 136 °C. To `CSC(=S)N(C)N=Cc1ccco1` belongs 103 °C; to `Cc1cccc(-c2nc3ccc(O)cc3n2Cc2ccccc2C(F)(F)F)c1`, 233 °C; to `CC(=O)NC[C@H]1CN(c2ccc(C(=O)c3cnc4c(OCc5ccccc5)cccn34)cc2)C(=O)O1`, 193 to 195 °C.

Compound `CSC1N=C(N)C=C(Cl)N1c1c([N+](=O)[O-])cc(C(F)(F)F)c(Cl)c1[N+](=O)[O-]` (configuration not stated) yielded a melting point of 171 to 175 °C. To `CCN(CC)C(=O)CCC(=O)Oc1cc(-n2c(=O)cc(C(F)(F)F)n(C)c2=O)c(F)cc1Cl` belongs 91 to 93 °C; to `CCN(C)c1nc(-c2cc(OC)c(OC)c(OC)c2)nc2sc(C#N)c(C)c12`, 163 to 164 °C. To `CCCc1c(C(=O)O)c(C(F)F)nc(C(F)(F)F)c1C(=O)O` belongs 236 °C; to `CCN(CC)c1ccc(C(F)(F)F)cc1NC(=O)c1ccncc1`, 78 to 80 °C; to `COc1ccc(CCC(N[C@@H](C)C(=O)N(CC(=O)O)C2Cc3ccccc3C2)C(=O)O)cc1OC` (some centres not stated), 160 to 165 °C. On to `COc1c(C(=O)O)csc1S(=O)(=O)Oc1ccc(-c2c3ccccc3c(Br)c3sc(C)c(C)c23)cc1C1CCCC1`, for which the melting point is > 225 °C. In turn, `CC(=O)N[C@@H](CO)C(=O)NCc1ccc(N)cc1` came in with a melting point of 158 to 160 °C. To `CS(=O)(=O)c1ccc(C(=O)c2cc(-c3ccccc3)c(N3CCOCC3)s2)cc1` belongs 175 °C; to `CC1(C)OOC23CCCCC2CC(=O)OC3O1` (configuration not stated), 106 to 107 °C; to `C=C(Cc1ccc(C=Cc2ccc(CC(=C)C(=O)OCC)cc2)cc1)C(=O)O`, 123 to 125 °C. For `N#Cc1cccc(-c2ccc(O)c(C=O)c2)c1` the value was 139 to 140 °C; for `CC(C)NC(=O)Cc1cccc(N)c1`, 93 to 95 °C.

In turn, `CCCC1=C(C#N)C(c2ccccc2Cl)c2c(n[nH]c2-c2ccccc2)N1` (configuration not stated) yielded a melting point of 262 °C. For `O=C(Nc1ccccn1)Nc1nc(-c2ccccc2)cs1` the value was 247 to 249 °C; for `CCOc1cc2c(cc1S(=O)(=O)NC(=O)NC)C(CNC(=O)N1CC(C)=C(CC)C1=O)CCO2` (configuration not stated), 187 to 188 °C; for `COC(=O)c1cc(S(N)(=O)=O)c(F)cc1N`, 209 to 211 °C. As to `CCn1c(=O)c2[nH]c(/C=C/c3ccc(C)cc3)nc2n(CC)c1=O`, the melting point was > 280 °C.

The compound `c1cnc2[nH]cc(CN3CCN(c4ccc5c(c4)OCO5)CC3)c2c1` yielded a melting point of 196 to 199 °C. `COc1ccccc1C=CC(=O)C1=C(O)C(=C(C)Nc2ccccc2N)C(=O)OC1=O`: the melting point lay within 148 to 150 °C. As to `CCOC(=O)C1COc2cc(C)c(C)cc2O1` (configuration not stated), the melting point lay within 70 to 71 °C. For `COc1ccc(CCN(C)CCCCc2ccc(NC(=O)c3cccc4c(=O)c5cc(F)ccc5sc34)cc2)cc1OC` the value was 145 °C; for `COc1cc(OC(C)(C)C(=O)O)c(-c2cccs2)cc1C=O`, 183 to 184 °C; for `CCc1cccc2[nH]c3c(c12)CC(N(C)C)CC3` (configuration not stated), 157 to 161 °C.

Compound `CN(CCSC(=O)Cc1ccccc1Nc1c(Cl)cccc1Cl)CC1(SN=O)CCCCC1` came in with a melting point of 115 to 129 °C.

`COCC1CN(c2ccc(Br)nc2)C(=O)O1` (racemic) had a melting point of 108 to 110 °C.

The compound `COc1ccc2c(N(C)CCN3CCOCC3)noc2c1` came in with a melting point of 43 to 44 °C.

The compound `COc1cccc(C23CCC(=O)C(C2)NC3=O)c1` (configuration not stated) registered a melting point of 138 to 139 °C. For `Cn1c(CC#N)ccc1C(=O)c1ccc(Cl)cc1Cl` the value was 129 to 130 °C; for `O=c1ccc(-c2ccc(-n3cnc4c3CCCC4)cc2)n[nH]1`, 266 to 267 °C. For `COc1cc(C)nc(NC(=O)NS(=O)(=O)c2cccc3c2C(Cl)=CC3)n1` the value was 168 to 172 °C; for `c1coc(-c2ccc(-c3ccco3)cc2)c1`, 149 to 150 °C; for `O=C1NCC(=O)c2c(ncn2C2OC(COC(=O)c3ccccc3)C(OC(=O)c3ccccc3)C2OC(=O)c2ccccc2)N1` (configuration not stated), 239 °C.

The compound `COc1cc(CN2CCC(=O)C(C(c3ccccc3)c3ccccc3)C2)ccc1O` (configuration not stated) registered a melting point of 131 to 132 °C. To `CC12CCC=CC1=CCC1C2CCC2(C)C(c3cccnc3)=CCC12` (configuration not stated) belongs 110 to 112 °C; to `COc1ccc(-c2nc(C)c(C(=O)OCC[Si](C)(C)C)s2)cc1`, 80 to 82 °C; to `CC(=O)Oc1ccc(C2(c3ccc(OC(C)=O)cc3)C(c3ccccc3)C2(Cl)Cl)cc1` (configuration not stated), 74 to 75 °C. Turning to `O=[N+]([O-])c1ccc(-c2cnn3c(O)ncnc23)cc1`, the melting point is > 300 °C. To `c1ccc(-c2nc3cc4oc(-c5ccccc5)nc4cc3o2)cc1` belongs 319 to 323 °C. On to `O=C(O)c1ccc(-c2ccccn2)cc1`, for which the melting point was 232 to 234 °C.

`CN1Cc2c(C(=O)OC(C)(C)C)ncn2-c2cccc(I)c2C1=O`: the melting point was in the range of 203 to 204 °C. The compound `N=C(NCc1ccccc1)NN=Cc1ccc(Cl)cc1Cl` yielded a melting point of 139 to 141 °C. With `Cn1c(=O)nc(-c2ccccc2F)c2cc(Cl)sc21`, the melting point fell in the range of 192 to 194 °C.

In turn, `O=Cc1cccc2oc3c(c12)CCCC3` returned a melting point of 55 to 57 °C. Compound `Cc1ccc(OCC#CI)c(Cl)n1` showed a melting point of 130 to 132 °C. For `CC(C)c1ccc2c(c1)c(-c1ccccc1Cl)c(NC(=O)Nc1ccc(F)cc1F)c(=O)n2C` the value was 152 to 156 °C. To `CCOC(=O)CC(=O)NCc1ccccc1` belongs 50 to 52 °C. To `CC(C)(C)c1cc(CP(=O)(Oc2ccccc2)Oc2ccccc2)cc(C(C)(C)C)c1O` belongs 130 °C; to `Cc1ccc(S(=O)(=O)OCP(=O)(OC(C)C)OC(C)C)cc1`, 37.5 °C; to `CON(C(=O)c1cccnc1Cl)C1CCCCC1`, 96 to 98 °C. Consider `COCCNC(=O)c1cc2c(nc(C)n2C)c2c1CCC1(Cc3ccccc3C1)N2`, for which the melting point is 186 to 187 °C. To `CCOC(=O)C1=C(C)NC(CS(=O)c2ccccc2)=C(C(=O)OCC)C1c1cccc([N+](=O)[O-])c1` (configuration not stated) belongs 160 to 162 °C; to `CC(C)(C#N)Cc1ccc(CC(C)(C)C#N)cc1`, 192 to 194 °C. `OC1CCN(Cc2cccc(F)c2)CC1` registered a melting point of 61 to 62 °C.

Consider `Cc1cccc(N=C2NCCN2)c1C`, for which the melting point was 141 to 144 °C. Consider `COC(=O)C(Cc1ccccc1)NC(=O)C(Cc1ccc(OC(C)(C)C)cc1)NC(=O)OCc1ccccc1` (configuration not stated) (Cbz-Tyr(tBu)-Phe-OMe; configuration not given here), for which the melting point fell in the range of 106 to 107 °C. `Nc1ccc(OCCCOc2ccc(N)cc2[N+](=O)[O-])c([N+](=O)[O-])c1` gave a melting point of 152 to 153 °C. For `Nc1ncc([N+](=O)[O-])cc1[N+](=O)[O-]` the value was 190 to 191 °C; for `COC(=O)C1=C(C)N(Cc2ccccc2[N+](=O)[O-])C(C)=C(C(=O)OC)C1c1cccc2nonc12`, 192 °C; for `COc1cc2ncnc(N3CCN(C(=O)Nc4ccc(N5CCOCC5)cc4)CC3)c2cc1OC`, 254 to 256 °C. `CNc1nc(-c2cccc(NC(=O)c3ccc(S(C)=O)cc3)c2)c2cc(OC)c(OC)cc2n1` (configuration not stated) yielded a melting point of 246 to 248 °C. To `CC12CCC(=O)C(CSc3ccccc3)=C1CCC1C2CCC2(C)C1C=CC2(C)O` (configuration not stated) belongs 147 °C; to `CN(C)Cc1cccc(OCCCNc2ncc(Cc3cccnc3)c(=O)[nH]2)c1`, 103 to 104 °C.

With `COc1c(Cl)c(C=O)c(Cl)c(OC)c1OC`, the melting point came to 76 °C. To `CCCCCCCCCCCCCCCCCCOc1cc(OCCCOc2ccc(S(C)(=O)=O)cc2)cc(N(CC(=O)OC)CC(=O)OC)c1` belongs 70 to 72 °C; to `CCOC(=O)C(C)(C)Oc1ccc(CNc2ccccn2)cc1`, 78 to 79 °C. To `O=CNCC(=O)c1cccc(Nc2ccc3ccccc3n2)c1` belongs 194 to 196 °C; to `COC1(c2cccc(O)c2)OOC12C1CC3CC(C1)CC2C3` (configuration not stated), 135 °C. The compound `CCO[C@@H](Cc1ccc(OCCc2nc(-c3ccc(-c4ccccc4)cc3)oc2C)c2ccsc12)C(=O)O` yielded a melting point of 163 to 164 °C. For `Cc1ccccc1Cn1[nH]c(N)cc1=O` the value was 138 °C.

`COc1ccc(OC)c(C(=O)c2oc3ccccc3c2O)c1` had a melting point of 158 °C. For `Nc1ccc(C#Cc2ccccc2)c(-c2cc(N)ccc2C#Cc2ccccc2)c1` the value was 159 to 161 °C; for `CCCOc1cc(N(CC)CC)ccc1-c1nc2cc3c(cc2[nH]1)C(C)(C)CC(=O)N3`, 147 to 148 °C; for `Cc1ccccc1-c1c(C(=O)O)c(=O)oc2cc3c(cc12)CCCC3`, 216 to 217 °C.
